Measurements: US8034799B2, “Preventing and/or treating cardiovascular disease and/or associated heart failure” (Philera New Zealand Limited, priority 2002, dated 2011)
Like-named read-outs stand apart in the source and are kept apart here.

What was measured:
[1] = test system: diabetic (STZ) and nondiabetic male Wistar rats
Source text: (§1) Nondiabetic animals received an equivalent volume of saline.
(§2) All animals were fasted overnight prior to surgery but continued to have ad libitum access to deionized water. […] The femoral artery and vein were cannulated with a solid-state blood pressure transducer (Mikrotip™ 1.4F, Millar Instruments, Texas, USA) and a saline filled PE 50 catheter respectively. The ureters were exposed via a midline abdominal incision, cannulated using polyethylene catheters (external diameter 0.9 mm, internal diameter 0.5 mm) and the wound sutured closed. The trachea was cannulated and the animal ventilated at 70-80 breaths·min^−1 with air supplemented with O2 (Pressure Controlled Ventilator, Kent Scientific, Connecticut, USA). The respiratory rate and end-tidal pressure (10-15 cm H2O) were adjusted to maintain end-tidal CO2 at 35-40 mm Hg (SC-300 CO2 Monitor, Pryon Corporation, Wisconsin, USA). Body temperature was maintained at 37° C. throughout surgery and the experiment by a heating pad. Estimated fluid loss was replaced with intravenous administration of 154 mmol·l^−1 NaCl solution at a rate of 5 ml·kg^−1·h^−1.
(§3) Following surgery and a 20 min stabilization period, the experimental protocol was started. Trientine was administered intravenously over 60 s in hourly doses of increasing concentration (0.1, 1.0, 10 and 100 mg·kg^−1 in 75 μl saline followed by 125 μl saline flush). Control animals received an equivalent volume of saline. Urine was collected in 15 min aliquots throughout the experiment in pre-weighed polyethylene epindorph tubes. At the end of the experiment a terminal blood sample was taken by cardiac puncture and the separated serum stored at −80° C. until future analysis. Hearts were removed through a rapid mid-sternal thoracotomy and processed as described below.
Mean arterial pressure (MAP), heart rate (HR, derived from the MAP waveform) oxygen saturation (Nonin 8600V Pulse Oximeter, Nonin Medical Inc., Minnesota, USA) and core body temperature, were all continuously monitored throughout the experiment using a PowerLab/16s data acquisition module (AD Instruments, Australia).

[2] = test system: diabetic Wistar rats; conditions: six months of treatment
[3] = test system: diabetic (STZ) and nondiabetic male Wistar rats; remark: listed apart in the source
Source text: as §1, §2, §3
Instrumentation: A Perkin Elmer (PE) Model 3100 Atomic Absorption Spectrophotometer equipped with a PE HGA-600 Graphite Furnace and PE AS-60 Furnace Autosampler was used for Cu and Fe determinations in urine. Deuterium background correction was employed. A Cu or Fe hollow-cathode lamp (Perkin Elmer Corporation) was used and operated at either 10 W (Cu) or 15 W (Fe). The 324.8 nm atomic line was used for Cu and the 248.3 nm atomic line for Fe. The slit width for both Cu and Fe was 0.7 nm. Pyrolytically coated graphite tubes were used for all analyses. The injection volume was 20 μL. A typical graphite furnace temperature program is shown below.
Urine: Urine was collected in pre-weighed 1.5 ml micro test tubes (eppendorf). After reweighing, the urine specimens were centrifuged and the supernatant diluted 25:1 with 0.02 M 69% Aristar grade HNO3. The sample was stored at 4° C. prior to GF-AAS analysis. If it was necessary to store a sample for a period in excess of 2 weeks, it was frozen and kept at −20° C.
Statistical analyses were as follows: All values are expressed as mean±SEM and P values <0.05 were considered statistically significant. Student's unpaired t-test was initially used to test for weight and glucose differences between the diabetic and control groups.

[4] = test system: STZ diabetic and normal Wistar rats; conditions: for Heart weight / Heart weight (g)/BW (g) / Left Ventricular wall thickness / Left Ventricular wall thickness per BW: mean ± SD
[5] = test system: diabetic (STZ) and nondiabetic male Wistar rats; conditions: for Renal clearance Cu / Renal clearance Fe / Serum Cu / Serum Fe: trientine; for Renal clearance Cu / Renal clearance Fe: final hour of experiment; for Serum Cu / Serum Fe: terminal blood sample
Method: as §3
Serum: Terminal blood samples were centrifuged and serum treated and stored as per urine until analysis. From the trace metal content of serum from the terminal blood sample and urine collected over the final hour of the experiment, renal clearance was calculated using the following equation: renal clearance of trace metal=(a) the concentration of metal in urine (μg·μl^−1) times (b) the rate of urine flow (μl·min^−1), divided by (c) the concentration of metal in serum (μg·μl^−1)

[6] = test system: STZ diabetic and normal Wistar rats
Method: On the last day of the experiment, animals were anesthetized (5% halothane and 2 L·min^−1 O2), and heparin (500 IU·kg^−1) (Weddel Pharmaceutical Ltd., London) administered intravenously via tail vein. […] Hearts were then placed in the isolated perfused working heart apparatus.
The aortic root of the heart was immediately ligated to the aortic cannula of the perfusion apparatus. Retrograde (Langendorff) perfusion at a hydrostatic pressure of 100 cm H2O and at 37° C. was established and continued for 5 min while cannulation of the left atrium via the pulmonary vein was completed. The non-working (Langendorff) preparation was then converted to the working heart model by switching the supply of perfusate buffer from the aorta to the left atrium at a filling pressure of 10 cm H2O. […] The perfusion solution was Krebs-Henseleit bicarbonate buffer (mM: KCl 4.7, CaCl2 2.3, KH2PO4 1.2, MgSO4 1.2, NaCl 118, and NaHCO3 25), pH 7.4 containing 11 mM glucose and it was continuously gassed with 95% O2:5% CO2. The buffer was also continuously filtered in-line (initial 8 μm, following 0.4 μm cellulose acetate filters; Sartorius, Germany). The temperature of the entire perfusion apparatus was maintained by water jackets and buffer temperature was continuously monitored and adjusted to maintain hearts at 37° C. throughout perfusion.
A modified 24 g plastic intravenous cannula (Becton Dickson, Utah, USA) was inserted into the left ventricle via the apex of the heart using the normal introducer-needle. This cannula was subsequently attached to a SP844 piezo-electric pressure transducer (AD Instruments) to continuously monitor left ventricular pressure. Aortic pressure was continuously monitored through a side arm of the aortic cannula with a pressure transducer (Statham Model P23XL, Gould Inc., CA, USA). The heart was paced (Digitimer Ltd, Heredfordshire, England) at a rate of 300 bpm by means of electrodes attached to the aortic and pulmonary vein cannulae using supra-threshold voltages with pulses of 5-ms duration from the square wave generator.

[7] = test system: diabetic (STZ) and nondiabetic male Wistar rats; conditions: for Cu content of heart tissue / Fe content of heart tissue: trientine treated
Method: as §3
Cu, Fe and Zn in tissue digests were also determined at Hill Laboratories (Hamilton, New Zealand) using either a PE Sciex Elan-6000 or PE Sciex Elan-6100 DRC ICP-MS.
Heart: Following removal from the animal, the heart was cleaned of excess tissue, rinsed in buffer to remove excess blood, blotted dry and a wet ventricular weight recorded. Using titanium instruments a segment of left ventricular muscle was dissected and placed in a pre-weighed 5.0 ml polystyrene tube. The sample was freeze-dried overnight to constant weight before 0.45 ml of 69% Aristar grade HNO3 was added. The sample tube was heated in a water bath at 65° C. for 60 minutes. The sample was brought to 4.5 ml with Milli-Q H2O. The resulting solution was diluted 2:1 in order to reduce the HNO3 concentration below the maximum permitted for ICP-MS analysis.

[8] = test system: diabetic rats; conditions: treatment of diabetic rats; cited from earlier work
[9] = STZ/D7 (diabetic, trientine weeks 7-13)
[10] = Sham/D7 (non-diabetic, trientine weeks 7-13)
[11] = diabetic and nondiabetic animals

NCCNCCNCCN [trientine, N,N′-Bis(2-aminoethyl)-1,2-ethanedi-amine]
adverse cardiovascular effects ([1]; after acute administration, 0.1-100 mg·kg^−1 i.v.): no adverse cardiovascular effects
body temperature and oxygen saturation ([1]; all animals throughout the experiment): remained stable
time for MAP to return to pre-dose levels ([1]; highest dose (100 mg·kg^−1 i.v.)): ≤ 10 min
maximum decrease in MAP ([1]; highest dose (100 mg·kg^−1 i.v.), for the 2 min following administration): 19±4 mm Hg
MAP and HR during infusion ([1]; i.v. hourly increasing doses, all doses except the highest, diabetic and nondiabetic rats): no effect
protection of hearts from development of diabetic damage (cardiomyopathy) as judged by histology [2]: appears to protect
copper excretion versus saline, mixed linear model ([3]; all dose levels): significantly higher excretion of copper
greater iron excretion per gram of body weight in diabetic than nondiabetic animals ([3]; animals receiving trientine): not evident
total iron excretion versus saline ([3]; both diabetic and nondiabetic animals): not different
total copper excreted over the entire duration of the experiment versus saline controls ([3]; both nondiabetic and diabetic animals): significantly increased
increase of urine excretion versus equivalent volume of saline ([3]; diabetic animals, 100 mg·kg^−1 i.v.): not seen
iron excretion (μg), saline versus drug ([3]; diabetic animals, at most doses): greater in animals administered saline than in those administered drug
diabetes x drug interaction effect on copper excretion, mixed linear model ([3]; dose levels of 1.0 mg·kg^−1 and above): significant
total copper per gram of body weight, diabetic versus nondiabetic animals receiving drug ([3]; entire experiment): excreted more total copper per gram of body weight
copper excretion per gram of body weight, diabetic versus nondiabetic animals ([3]; in response to each dose of drug): significantly greater copper excretion per gram of body weight
greater total iron excretion per gram of body weight in diabetic than nondiabetic animals ([3]; in response to trientine): not seen
urine excretion versus equivalent volume of saline ([3]; nondiabetic animals, 100 mg·kg^−1 i.v.): increased urine excretion
Heart weight [4, 9]: 1.18 ± 0.24 g
Heart weight (g)/BW (g) [4, 9]: 0.0041 ± 0.0005^
Left Ventricular wall thickness [4, 9]: 3.79 ± 0.52 mm
Left Ventricular wall thickness per BW [4, 9]: 0.0127 ± 0.0027^ (mm)/(g)
Heart weight [4, 10]: 1.58 ± 0.05 g
Heart weight (g)/BW (g) [4, 10]: 0.0028 ± 0.0001
Left Ventricular wall thickness [4, 10]: 4.03 ± 0.1 mm
Left Ventricular wall thickness per BW [4, 10]: 0.0072 ± 0.0003 (mm)/(g)
heart:body weight ratio, treated versus untreated diabetic animals ([4]; diabetic animals, trientine weeks 7-13): small but significant improvement
ventricular wall thickness:bodyweight ratio, treated versus non-treated diabetics ([4]; did not reach significance): trend toward improved
blood glucose profile, treated versus untreated comparison group ([4]; either treated group (STZ/D7, Sham/D7), p=ns): no difference
serum content or renal clearance of iron, effect of drug [5, 11]: no effect
serum copper content, drug versus saline [5, 11]: no significant difference
renal clearance of copper, drug versus saline ([5]; diabetic animals): significant increase
Renal clearance Cu ([5]; diabetic, n = 6): *28.5 ± 4.8 μl · min^−1
Renal clearance Fe ([5]; diabetic, n = 6): 0.25 ± 0.07 µL/min
Serum Cu ([5]; diabetic, n = 6): 7.56 ± 0.06 μg · μl^−1 × 10^−4
Serum Fe ([5]; diabetic, n = 6): 35.7 ± 7.98 μg · μl^−1 × 10^−4
increase in renal clearance of copper, drug versus saline ([5]; nondiabetic animals (P=0.056)): not statistically significant
Renal clearance Cu ([5]; nondiabetic, n = 4): 19.9 ± 6.4 µL/min
Renal clearance Fe ([5]; nondiabetic, n = 4): 0.46 ± 0.22 µL/min
Serum Cu ([5]; nondiabetic, n = 4): 7.11 ± 0.41 μg · μl^−1 × 10^−4
Serum Fe ([5]; nondiabetic, n = 4): 33.6 ± 1.62 μg · μl^−1 × 10^−4
Percentage functioning at each afterload ([6]; STZ/D7 (diabetic, trientine weeks 7-13), afterload 55.9 mmHg): 100%
Number surviving (aortic flow >0 mls/min) ([6]; STZ/D7 (diabetic, trientine weeks 7-13, N 8), afterload 55.9 mmHg): 8
Number surviving (aortic flow >0 mls/min) ([6]; STZ/D7, afterload 61.8 mmHg): 8
Percentage functioning at each afterload ([6]; STZ/D7, afterload 61.8 mmHg): 100%
Number surviving (aortic flow >0 mls/min) ([6]; STZ/D7, afterload 67.7 mmHg): 8
Percentage functioning at each afterload ([6]; STZ/D7, afterload 67.7 mmHg): 100%
Number surviving (aortic flow >0 mls/min) ([6]; STZ/D7, afterload 71.4 mmHg): 8
Percentage functioning at each afterload ([6]; STZ/D7, afterload 71.4 mmHg): 100%
Number surviving (aortic flow >0 mls/min) ([6]; STZ/D7, afterload 77.2 mmHg): 8
Percentage functioning at each afterload ([6]; STZ/D7, afterload 77.2 mmHg): 100%
Number surviving (aortic flow >0 mls/min) ([6]; STZ/D7, afterload 83.1 mmHg): 8
Percentage functioning at each afterload ([6]; STZ/D7, afterload 83.1 mmHg): 100%
Number surviving (aortic flow >0 mls/min) ([6]; STZ/D7, afterload 88.3 mmHg): 7
Percentage functioning at each afterload ([6]; STZ/D7, afterload 88.3 mmHg): 88%
Number surviving (aortic flow >0 mls/min) ([6]; STZ/D7, afterload 94.9 mmHg): 6
Percentage functioning at each afterload ([6]; STZ/D7, afterload 94.9 mmHg): 75%
Number surviving (aortic flow >0 mls/min) ([6]; STZ/D7, afterload 100.8 mmHg): 5
Percentage functioning at each afterload ([6]; STZ/D7, afterload 100.8 mmHg): 63%
Number surviving (aortic flow >0 mls/min) ([6]; STZ/D7, afterload 106.7 mmHg): 1
Percentage functioning at each afterload ([6]; STZ/D7, afterload 106.7 mmHg): 13%
Percentage functioning at each afterload ([6]; Sham/D7 (non-diabetic, trientine weeks 7-13), afterload 55.9 mmHg): 100%
Number surviving (aortic flow >0 mls/min) ([6]; Sham/D7 (non-diabetic, trientine weeks 7-13, N 11), afterload 55.9 mmHg): 11
Number surviving (aortic flow >0 mls/min) ([6]; Sham/D7, afterload 61.8 mmHg): 11
Percentage functioning at each afterload ([6]; Sham/D7, afterload 61.8 mmHg): 100%
Number surviving (aortic flow >0 mls/min) ([6]; Sham/D7, afterload 67.7 mmHg): 11
Percentage functioning at each afterload ([6]; Sham/D7, afterload 67.7 mmHg): 100%
Number surviving (aortic flow >0 mls/min) ([6]; Sham/D7, afterload 71.4 mmHg): 11
Percentage functioning at each afterload ([6]; Sham/D7, afterload 71.4 mmHg): 100%
Number surviving (aortic flow >0 mls/min) ([6]; Sham/D7, afterload 77.2 mmHg): 11
Percentage functioning at each afterload ([6]; Sham/D7, afterload 77.2 mmHg): 100%
Number surviving (aortic flow >0 mls/min) ([6]; Sham/D7, afterload 83.1 mmHg): 11
Percentage functioning at each afterload ([6]; Sham/D7, afterload 83.1 mmHg): 100%
Number surviving (aortic flow >0 mls/min) ([6]; Sham/D7, afterload 88.3 mmHg): 11
Percentage functioning at each afterload ([6]; Sham/D7, afterload 88.3 mmHg): 100%
Number surviving (aortic flow >0 mls/min) ([6]; Sham/D7, afterload 94.9 mmHg): 11
Percentage functioning at each afterload ([6]; Sham/D7, afterload 94.9 mmHg): 100%
Number surviving (aortic flow >0 mls/min) ([6]; Sham/D7, afterload 100.8 mmHg): 11
Percentage functioning at each afterload ([6]; Sham/D7, afterload 100.8 mmHg): 100%
Number surviving (aortic flow >0 mls/min) ([6]; Sham/D7, afterload 106.7 mmHg): 9
Percentage functioning at each afterload ([6]; Sham/D7, afterload 106.7 mmHg): 82%
cardiac output ([6]; drug treated diabetic group, pre-load increased (5-20 cm H2O), after-load constant): restored to Sham values
aortic and absolute coronary flows ([6]; drug treated diabetic group, pre-load increased, after-load constant): improved
indicators for ventricular contraction and relaxation (+dP/dt, −dP/dt) ([6]; drug treated versus untreated diabetic group): significantly improved
heart's ability to function at higher after-loads ([6]; drug treated versus untreated diabetic group, constant pre-load): greatly improved
adverse effects on cardiac performance ([6]; drug treatment of normal animals (Sham/D7)): no adverse effects
cardiac function overall ([6]; oral trientine for 7 weeks, Wistar rats with established diabetes of 6 weeks duration): global improvement in cardiac function
trientine treated diabetic hearts still functioning ([6]; when 50% of the untreated diabetic hearts had failed): about 90%
effect of drug on cardiac content of iron and copper ([7]; acute i.v. administration): nor any effect of drug
content of copper in cardiac tissue, diabetic versus nondiabetic animals ([7]; animals receiving saline or trientine): no significant difference
Cu content of heart tissue ([7]; diabetic): 24.7 ± 1.5 μg · g^−1 dry tissue
Fe content of heart tissue ([7]; diabetic): 186 ± 46 μg · g^−1 dry tissue
Cu content of heart tissue ([7]; nondiabetic): 27.1 ± 1.0 μg · g^−1 dry tissue
Fe content of heart tissue ([7]; nondiabetic): 235 ± 39 μg · g^−1 dry tissue

N=C(N)NN [aminoguanidine]
aortic impedance [8]: decreases
carotid artery compliance [8]: increased
myocardial compliance [8]: prevented the decreased myocardial compliance
